According to patent US7211576B2, “Diaminothiazoles” (Hoffmann-La Roche Inc., priority 2004, dated 2007):

Assays:
Format in all cases: biochemical
[1] = target: human cyclin D1-CDK4 (Homo sapiens, UniProt P11802); test: FlashPlate kinase assay, cyclin D1-CDK4; conditions: Rb protein substrate, 1 μM ATP, 33P-ATP, 30 minutes room temperature; read-out: CDK4 IC50
Experimental: To determine inhibition of Cdk4, Cdk2 and Cdk1 activity, kinase assays were conducted using FlashPlate™ assays (NEN™-Life Science Products). FlashPlate assays were performed using recombinant human cyclin B-CDK1, human cyclin E-CDK2 or human cyclin D1-CDK4 complexes. GST-cyclinE (GST-cycE), CDK2, GST-cyclinB (GST-cycB), CDK1, GST-CDK4 and cyclin D1 (cycD1) cDNA clones in baculovirus vectors were provided by Dr. W. Harper at the Baylor College of Medicine, Houston, Tex.
(§1) The expression of the 62Kd protein was under the control of an IPTG inducible promoter in an M15 E. coli strain. Cells were lysed by sonication and purification was carried out by binding lysates at pH 8.0 to a Ni-chelated agarose column pretreated with 1 mM imidazole. The resin was then washed several times with incrementally decreasing pH buffers to pH 6.0, and eluted with 500 mM imidazole. Eluted protein was dialysed against 20 mM HEPES pH 7.5, 30% glycerol, 200 mM NaCl, and 1 mM DTT. Purified Rb fusion protein stocks were quantitated for protein concentration, aliquoted, and stored at −70° C.
(§2) For all three kinase assays reported herein, 96-well FlashPlates were coated with Rb protein at 10 μg/ml, using 100 μl per well. Plates were incubated at 4° C. overnight or at room temperature for 3 hours on a shaker. To control for nonspecific phosphorylation, one row of wells was coated with 100 μl/well coating buffer (20 mM HEPES, 0.2 M NaCl). Plates were then washed twice with wash buffer (0.01% Tween 20 in phosphate-buffered saline). Compounds to be tested (“test compounds”) were added to the wells at 5× final concentration. Reactions were initiated by immediate addition of 40 μl reaction mix (25 mM HEPES, 20 mM MgCl2, 0.002% Tween 20, 2 mM DTT, 1 μM ATP, 4 nM ^33P-ATP) and a sufficient amount of enzyme to give counts that were at least 10-fold above background. Plates were incubated at room temperature on a shaker for 30 minutes. Plates were washed four times with the wash buffer, sealed, and counted on the TopCount scintillation counter (Packard Instrument Co., Downers Grove, Ill.]. The percent inhibition of Rb phosphorylation, which is a measure of the inhibition of CDK activity, was determined according to the following formula:
[formula] where “test compound” refers to the average counts per minute of the test duplicates, “nonspecific” refers to the average counts per minute when no CyclinD/Cdk4, etc., was added, and “total” refers to the average counts per minute when no compound was added.

[2] = target: human cyclin B-CDK1 (Homo sapiens, UniProt P06493); test: FlashPlate kinase assay, cyclin B-CDK1; conditions: Rb protein substrate, 1 μM ATP, 33P-ATP, 30 minutes room temperature
Experimental: (§3) To determine inhibition of Cdk4, Cdk2 and Cdk1 activity, kinase assays were conducted using FlashPlate™ assays (NEN™-Life Science Products). FlashPlate assays were performed using recombinant human cyclin B-CDK1, human cyclin E-CDK2 or human cyclin D1-CDK4 complexes. GST-cyclinE (GST-cycE), CDK2, GST-cyclinB (GST-cycB), CDK1, GST-CDK4 and cyclin D1 (cycD1) cDNA clones in baculovirus vectors were provided by Dr. W. Harper at the Baylor College of Medicine, Houston, Tex. Proteins were co-expressed in High Five™ insect cells and the complex was purified on glutathione Sepharose resin (Pharmacia, Piscataway, N.J.) as previously described (Harper, J. W. et al. Cell 1993, 75, 805–816). A 6×-Histidine tagged truncated form of retinoblastoma (Rb) protein (amino acid 386–928) was used as the substrate for the cycD1-CDK4, cycB-CDK1 and the cycE-CDK2 assays (the expression plasmid was provided by Dr. Veronica Sullivan, Department of Molecular Virology, Roche Research Centre, Welwyn Garden City, United Kingdom). The Rb protein is a natural substrate for phosphorylation by CDK4, CDK2 and CDK1 (see Herwig and Strauss Eur. J. Biochem. Vol. 246 (1997) pp. 581–601 and the references cited therein).
as §1, §2
(§4) [formula] where “test compound” refers to the average counts per minute of the test duplicates, “nonspecific” refers to the average counts per minute when no CyclinD/Cdk4, etc., was added, and “total” refers to the average counts per minute when no compound was added. The IC50 value is the concentration of test compound that reduces by 50% the protein-kinase induced incorporation of the radiolabel under the test conditions described.

[3] = target: human cyclin E-CDK2 (Homo sapiens, UniProt P24941); test: FlashPlate kinase assay, cyclin E-CDK2; conditions: Rb protein substrate, 1 μM ATP, 33P-ATP, 30 minutes room temperature
Experimental: as §3, §1, §2, §4

Sequence of human cyclin B-CDK1 (P06493 whole entry): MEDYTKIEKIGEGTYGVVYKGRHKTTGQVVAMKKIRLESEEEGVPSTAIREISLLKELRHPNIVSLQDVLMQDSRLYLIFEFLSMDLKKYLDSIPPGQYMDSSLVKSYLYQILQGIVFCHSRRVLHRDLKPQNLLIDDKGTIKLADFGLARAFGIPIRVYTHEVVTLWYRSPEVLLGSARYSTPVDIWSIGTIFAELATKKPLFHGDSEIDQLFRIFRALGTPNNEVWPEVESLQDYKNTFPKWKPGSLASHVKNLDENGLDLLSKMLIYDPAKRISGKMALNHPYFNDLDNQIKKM
Sequence of human cyclin B-CDK1 (P14635 whole entry partner): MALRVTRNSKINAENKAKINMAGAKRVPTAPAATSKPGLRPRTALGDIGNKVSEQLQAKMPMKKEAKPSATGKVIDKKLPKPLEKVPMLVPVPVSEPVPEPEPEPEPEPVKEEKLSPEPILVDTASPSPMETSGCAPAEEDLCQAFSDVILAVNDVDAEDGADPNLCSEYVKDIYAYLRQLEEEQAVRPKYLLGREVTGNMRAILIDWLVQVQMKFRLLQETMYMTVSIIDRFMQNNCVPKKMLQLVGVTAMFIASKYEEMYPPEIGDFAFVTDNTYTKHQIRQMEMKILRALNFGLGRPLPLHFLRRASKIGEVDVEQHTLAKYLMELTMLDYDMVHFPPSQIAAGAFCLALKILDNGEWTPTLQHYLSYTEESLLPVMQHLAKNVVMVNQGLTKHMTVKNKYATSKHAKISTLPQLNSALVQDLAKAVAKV
Sequence of human cyclin D1-CDK4 (P11802 whole entry): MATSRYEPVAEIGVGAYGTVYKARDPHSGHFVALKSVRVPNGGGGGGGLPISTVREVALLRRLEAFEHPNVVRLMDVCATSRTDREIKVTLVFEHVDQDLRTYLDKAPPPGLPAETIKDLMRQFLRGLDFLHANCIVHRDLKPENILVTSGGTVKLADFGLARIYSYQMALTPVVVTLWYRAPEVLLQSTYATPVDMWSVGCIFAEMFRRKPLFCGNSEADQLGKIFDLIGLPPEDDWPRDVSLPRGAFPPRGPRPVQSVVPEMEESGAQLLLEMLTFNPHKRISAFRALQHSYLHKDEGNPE
Sequence of human cyclin D1-CDK4 (P24385 whole entry partner): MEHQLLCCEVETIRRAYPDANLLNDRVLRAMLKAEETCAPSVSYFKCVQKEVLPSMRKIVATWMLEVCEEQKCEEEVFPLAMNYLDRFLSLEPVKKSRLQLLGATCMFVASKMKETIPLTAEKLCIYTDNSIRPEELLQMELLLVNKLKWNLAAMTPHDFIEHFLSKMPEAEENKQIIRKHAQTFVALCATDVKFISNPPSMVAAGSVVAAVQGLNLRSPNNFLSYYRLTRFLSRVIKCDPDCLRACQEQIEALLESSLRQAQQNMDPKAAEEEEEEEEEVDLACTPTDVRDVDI

SMILES	IC50 [1]	IC50 [2]	IC50 [3]
Nc1nc(Nc2ccc(N3CCC(N4CCCC4)CC3)cc2)sc1C(=O)c1ccc(O)cc1 [Example 28, {4-Amino-2-[4-(4-pyrrolidin-1-yl-piperidin-1-yl)-phenylamino]-thiazol-5-yl}-(4-hydroxy-phenyl)-methanone]	53 nM	1170 nM	4180 nM
Nc1nc(Nc2ccc(N3CCC(N4CCCCC4)CC3)cc2)sc1C(=O)c1ccc(O)cc1 [Example 29, [4-Amino-2-(4-[1,4′]bipiperidinyl-1′-yl-phenylamino)-thiazol-5-yl]-(4-hydroxy-phenyl)-methanone]	55 nM	1230 nM	3990 nM
COc1ccc(C(=O)c2sc(Nc3ccc(N4CCC(N(C)C)CC4)cc3)nc2N)cc1F [Example 42, {4-Amino-2-[4-(4-dimethylamino-piperidin-1-yl)-phenylamino]-thiazol-5-yl}-(3-fluoro-4-methoxy-phenyl)-methanone]	86 nM	5790 nM	5830 nM
CN(C)C1CCN(c2ccc(Nc3nc(N)c(C(=O)c4ccc(O)cc4)s3)cc2)CC1 [Example 46, {4-Amino-2-[4-(4-dimethylamino-piperidin-1-yl)-phenylamino]-thiazol-5-yl}-(4-hydroxy-phenyl)-methanone]	55 nM	3810 nM	5670 nM
COc1cccc(C(=O)c2sc(Nc3ccc(N4CCC(N(C)C)CC4)cc3)nc2N)c1[N+](=O)[O-] [Example 49, {4-Amino-2-[4-(4-dimethylamino-piperidin-1-yl)-phenylamino]-thiazol-5-yl}-(3-methoxy-2-nitro-phenyl)-methanone]	8 nM	5 nM	136 nM
Nc1nc(Nc2ccc(N3CCC(N4CCCCC4)CC3)cc2)sc1C(=O)c1cc(F)cc(F)c1 [Example 57, [4-Amino-2-(4-[1,4′]bipiperidinyl-1′-yl-phenylamino)-thiazol-5-yl]-(3,5-difluoro-phenyl)-methanone]	86 nM	3560 nM	8030 nM
Nc1nc(Nc2ccc(N3CCC(N4CCCCC4)CC3)cc2)sc1C(=O)c1ccc(F)c(F)c1 [Example 59, [4-Amino-2-(4-[1,4′]bipiperidinyl-1′-yl-phenylamino)-thiazol-5-yl]-(3,4-difluoro-phenyl)-methanone]	61 nM	4630 nM	3090 nM
Nc1nc(Nc2ccc(N3CCC(N4CCCCC4)CC3)cc2)sc1C(=O)c1ccc(Cl)c([N+](=O)[O-])c1 [Example 62, [4-Amino-2-(4-[1,4′]bipiperidinyl-1′-yl-phenylamino)-thiazol-5-yl]-(4-chloro-3-nitro-phenyl)-methanone]	278 nM	4210 nM	4170 nM
N#Cc1cccc(C(=O)c2sc(Nc3ccc(N4CCC(N5CCCCC5)CC4)cc3)nc2N)c1 [Example 64, 3-[4-Amino-2-(4-[1,4′]bipiperidinyl-1′-yl-phenlamino)-thiazole-5-carbonyl]-benzonitrile]	15 nM	1280 nM	2700 nM
Nc1nc(Nc2ccc(N3CCC(N4CCCCC4)CC3)cc2)sc1C(=O)c1cccc(O)c1 [Example 65, [4-Amino-2-(4-[1,4′]bipiperidinyl-1′-yl-phenylamino)-thiazol-5-yl]-(3-hydroxy-phenyl)-methanone]	18 nM	1440 nM	3390 nM
Nc1nc(Nc2ccc(N3CCC(N4CCCC4)CC3)cc2)sc1C(=O)c1ccc(F)c(F)c1 [Example 68, {4-Amino-2-[4-(4-pyrrolidin-1-yl-piperidin-1-yl)-phenylamino]-thiazol-5-yl}-(3,4-difluoro-phenyl)-methanone]	89 nM	3850 nM	5950 nM
Nc1nc(Nc2ccc(N3CCC(N4CCCC4)CC3)cc2)sc1C(=O)c1ccc(Cl)c(Cl)c1 [Example 69]	102 nM	6230 nM	5620 nM
Nc1nc(Nc2ccc(N3CCC(N4CCCC4)CC3)cc2)sc1C(=O)c1ccc(Cl)c([N+](=O)[O-])c1 [Example 71, {4-Amino-2-[4-(4-pyrrolidin-1-yl-piperidin-1-yl)-phenylamino]-thiazol-5-yl}-(4-chloro-3-nitro-phenyl)-methanone]	162 nM	4060 nM	4150 nM

The next lines start with the values.

IC50 [1]	IC50 [2]	IC50 [3]	SMILES
88 nM	2590 nM	8050 nM	Nc1nc(Nc2ccc(N3CCC(N4CCCC(O)C4)CC3)cc2)sc1C(=O)c1cc(F)cc(F)c1 (stereo not shown) [Example 73, {4-Amino-2-[4-(3-hydroxy-[1,4′]bipiperidinyl-1′-yl)-phenylamino]-thiazol-5-yl}-(3,5-difluoro-phenyl)-methanone]
58 nM	4050 nM	8680 nM	Nc1nc(Nc2ccc(N3CCC(N4CCCC(O)C4)CC3)cc2)sc1C(=O)c1ccc(F)c(F)c1 (stereo not shown) [Example 75, {4-Amino-2-[4-(3-hydroxy-[1,4′]bipiperidinyl-1′-yl)-phenylamino]-thiazol-5-yl}-(3,4-difluoro-phenyl)-methanone]
124 nM		8760 nM	Nc1nc(Nc2ccc(N3CCC(N4CCCC(O)C4)CC3)cc2)sc1C(=O)c1ccc(Cl)c(Cl)c1 (stereo not shown) [Example 76, {4-Amino-2-[4-(3-hydroxy-[1,4′]bipiperidinyl-1′-yl)-phenylamino]-thiazol-5-yl}-(3,4-dichloro-phenyl)-methanone]
246 nM	2900 nM	3710 nM	Nc1nc(Nc2ccc(N3CCC(N4CCCC(O)C4)CC3)cc2)sc1C(=O)c1ccc(Cl)c([N+](=O)[O-])c1 (stereo not shown) [Example 78, {4-Amino-2-[4-(3-hydroxy-[1,4′]bipiperidinyl-1′-yl)-phenylamino]-thiazol-5-yl}-(4-chloro-3-nitro-phenyl)-methanone]
84 nM	4270 nM	7840 nM	CN(C)C1CCN(c2ccc(Nc3nc(N)c(C(=O)c4cc(F)cc(F)c4)s3)cc2)CC1 [Example 82, {4-Amino-2-[4-(4-dimethylamino-piperidin-1-yl)-phenylamino]-thiazol-5-yl}-(3,5-difluoro-phenyl)-methanone]
122 nM	3730 nM	9510 nM	CN(C)C1CCN(c2ccc(Nc3nc(N)c(C(=O)c4ccc(F)c(F)c4)s3)cc2)CC1 [Example 84, {4-Amino-2-[4-(4-dimethylamino-piperidin-1-yl)-phenylamino]-thiazol-5-yl}-(3,4-difluoro-phenyl)-methanone]
98 nM	510 nM	2260 nM	CN(C)C1CCN(c2ccc(Nc3nc(N)c(C(=O)c4ccc(Cl)c(Cl)c4)s3)cc2)CC1 [Example 85, {4-Amino-2-[4-(4-dimethylamino-piperidin-1-yl)-phenylamino]-thiazol-5-yl}-(3,4-dichloro-phenyl)-methanone]
14 nM	770 nM		Cc1cccc(C(=O)c2sc(Nc3ccc(N4CCC(N5CCCC5)CC4)cc3)nc2N)c1 [Example 109, {4-Amino-2-[4-(4-pyrrolidin-1-yl-piperidin-1-yl)-phenylamino]-thiazol-5-yl}-tolyl-methanone]
